The subject of data set [1] is Lewis lung carcinoma cell line. Briefly: Antitumor activity against mouse LLC cells xenografted in C57BL/6 mouse assessed as tumor growth inhibition at 6 mg/kg, ip qd for 15 days relative to control. The following applies: 360 h, route intraperitoneal, read-out: GI. The format is functional.
For data set [2], the system named is Lewis lung carcinoma cell line. Briefly: Antimetastatic activity against mouse LLC cells xenografted in C57BL/6 mouse assessed as inhibition of lung metastasis at 6 mg/kg, ip qd for 15 days relative to control. On the set-up: dose 6 mg/kg. The data set is classed as functional, organism-based.
The subject of data set [3] is Mus musculus. Briefly: Toxicity in mouse LLC cells xenografted C57BL/6 mouse assessed as decrease in body weight at 6 mg/kg, ip qd for 15 days. The following applies: in vivo, 360 h. The format is organism-based. Also on record: dose 6 mg/kg, route intraperitoneal.
In data set [4] the test system is Mus musculus. Briefly: Toxicity in mouse 4T1 cells xenografted […] mouse assessed as decrease in body weight at 3 mg/kg, ip qd for 28 days. The data set is classed as organism-based. On the set-up: dose 3 mg/kg, route intraperitoneal. The following applies: in vivo, 672 h.
Data set [5] relates to 4T1. Briefly: Antitumor activity against mouse 4T1 cells xenografted in […] mouse assessed as tumor growth inhibition at 3 mg/kg, ip qd for 28 days relative to control. The format is functional. The conditions noted are these: 4T1, ip, 672 h, route intraperitoneal, read-out: GI.
In data set [6] the test system is 4T1. Briefly: Antimetastatic activity against mouse 4T1 cells xenografted in […] mouse assessed as inhibition of lung metastasis at 3 mg/kg, ip qd for 28 days. The format is functional, organism-based. Also on record: dose 3 mg/kg.
For data set [7], the system named is Mus musculus. Briefly: Antimetastatic activity against mouse 4T1 cells xenografted in BALB/c mouse assessed as reduction of myeloid derived suppressor cells accumulation in spleen at 3 mg/kg, ip qd for 23 days by flow cytometry analysis relative to control. The format is functional. On the set-up: scale not given: the % may be the effect or the level left. The following applies: route intraperitoneal.

Data set [8] has as its system Mus musculus. Briefly: Antimetastatic activity against mouse 4T1 cells xenografted in BALB/c mouse assessed as reduction of myeloid derived suppressor cells accumulation in bone marrow at 3 mg/kg, ip qd for 23 days by flow cytometry analysis relative to control. The data set is classed as functional. On the set-up: scale not given: the % may be the effect or the level left. The following applies: route intraperitoneal.

The results in this text go back to ChEMBL document CHEMBL1773045, “Conjugate (MTC-220) of muramyl dipeptide analogue and paclitaxel prevents both tumor growth and metastasis in mice” (J Med Chem, 2011).

Activity calls are given as the source filed them. The calls are words filed in the database; no cut-off is given here.

Turning to `CC(=O)O[C@H]1C(=O)[C@@]2(C)[C@H]([C@H](OC(=O)c3ccccc3)[C@]3(O)C[C@H](OC(=O)[C@H](O)[C@@H](NC(=O)c4ccccc4)c4ccccc4)C(C)=C1C3(C)C)[C@]1(OC(C)=O)CO[C@@H]1C[C@@H]2O` [PACLITAXEL], the inhibition in vivo at 6 mg/kg in data set [1] was 26.2%. The “growth inhibition (GI)” value (in data set [2]; with 4T1 [6]) was “inactive” each time. The Activity result in the data set on Mus musculus [3] is on record as “Non-toxic”; in the data set on Mus musculus [4], “Non-toxic”; with Mus musculus [7] it was 46.7%; in the data set with Mus musculus [8], 79.1%. The inhibition in vivo at 3 mg/kg in the data set with 4T1 [5] is 30.5%.
